Key:
[1] = target: T1, human adenosine A1 receptor (Homo sapiens, UniProt P30542); assay: Human adenosine A1 receptor [3H]-DPCPX binding assay; settings: recombinant receptor expressed in CHO cells, [3H]-DPCPX 0.6 nM, SPA; read-out: hA1 (converted)
T1 construct: expressed in transfected cells; host or cells: CHO cells, semliki forest virus expression system; membranes used
T1 sequence (P30542 1-326): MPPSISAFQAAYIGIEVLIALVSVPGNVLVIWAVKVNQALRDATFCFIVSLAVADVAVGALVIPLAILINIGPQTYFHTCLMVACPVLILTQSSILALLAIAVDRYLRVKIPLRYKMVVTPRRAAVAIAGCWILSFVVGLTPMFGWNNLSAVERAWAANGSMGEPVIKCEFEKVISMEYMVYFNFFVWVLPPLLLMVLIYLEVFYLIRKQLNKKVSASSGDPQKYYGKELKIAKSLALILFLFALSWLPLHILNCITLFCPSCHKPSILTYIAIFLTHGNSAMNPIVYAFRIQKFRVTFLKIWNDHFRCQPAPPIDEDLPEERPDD
Procedure: (§1) The human adenosine A1 receptor was recombinantly expressed in Chinese hamster ovary (CHO) cells using the semliki forest virus expression system. Cells were harvested, washed twice by centrifugation, homogenized and again washed by centrifugation. The [^3H]-DPCPX (([propyl-3H]8-cyclopentyl-1,3-dipropyxanthine); 0.6 nM) binding assay was carried out in 96-well plates in the presence of (per well) approximately 2.5 μg of membrane protein, 0.5 mg of Ysi-poly-1-lysine SPA beads and 0.1 U adenosine deaminase in a final volume of 200 μl of buffer (containing 50 mM Tris, 120 mM NaCl, 5 mM KCl, 2 mM CaCl2 and 10 mM MgCl2 (pH 7.4)). Non-specific binding was defined using xanthine amine congener (XAC; 2 μM). Compounds were tested at 10 concentrations from 10 μM-0.3 nM. All assays were conducted in duplicate and repeated at least two times. Assay plates were incubated for 1 hour at room temperature before centrifugation and then bound ligand determined using a Packard Topcount scintillation counter. IC50 values were calculated using a non-linear curve fitting program and Ki values calculated using the Cheng-Prussoff equation.

[2] = target: T2, human adenosine A2A receptor (Homo sapiens, UniProt P29274); assay: Human adenosine A2A receptor [3H]-SCH-58261 binding assay; settings: for Selectivity: hA2A versus hA1; for Ki: recombinant receptor expressed in CHO cells, [3H]-SCH-58261 1 nM, SPA, read-out: hA2A (converted)
T2 construct: expressed in transfected cells; host or cells: CHO cells, semliki forest virus expression system; membranes used
Procedure: as §1, with “A2A” for “A1”, “[^3H]-SCH-58261 (Dionisotti et al., 1997, Br J Pharmacol 121, 353; 1” for “[^3H]-DPCPX (([propyl-3H]8-cyclopentyl-1,3-dipropyxanthine); 0.6”

T2 sequence (P29274 whole entry): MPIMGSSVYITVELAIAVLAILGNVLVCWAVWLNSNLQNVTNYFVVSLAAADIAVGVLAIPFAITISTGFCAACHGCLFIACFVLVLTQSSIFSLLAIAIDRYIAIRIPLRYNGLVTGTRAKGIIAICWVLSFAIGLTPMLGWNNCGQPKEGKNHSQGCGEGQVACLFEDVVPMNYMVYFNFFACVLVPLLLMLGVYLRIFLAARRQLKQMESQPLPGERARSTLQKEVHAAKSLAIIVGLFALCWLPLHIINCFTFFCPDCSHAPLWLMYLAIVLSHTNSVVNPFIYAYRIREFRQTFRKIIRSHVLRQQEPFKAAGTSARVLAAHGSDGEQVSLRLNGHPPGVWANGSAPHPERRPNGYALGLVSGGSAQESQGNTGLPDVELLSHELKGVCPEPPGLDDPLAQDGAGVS

Row | SMILES | Ki [1] [nM] | Selectivity [2] | Ki [2] [nM]
1 | COc1cnc(N2CCOCC2)c2sc(NC(=O)N3CCC4(CCCO4)CC3)nc12 [Example 40, 1-Oxa-8-aza-spiro[4.5]decane-8-carboxylic acid (7-methoxy-4-morpholin-4-yl-thiazolo[5,4-c]pyridin-2-yl)-amide] | 5890 | 387 | 15.5
2 | COc1cnc(N2CCOCC2)c2sc(NC(=O)c3ccnc(CN4CCOCC4)c3)nc12 [Example 33, N-(7-Methoxy-4-morpholin-4-yl-thiazolo[5,4-c]pyridin-2-yl)-2-morpholin-4-ylmethyl-isonicotinamide] | – | 291 | 25.1
3 | COc1cnc(N2CCOCC2)c2sc(NC(=O)c3ccc4c(c3)OCO4)nc12 [Example 9, Benzo [1,3]dioxole-5-carboxylic acid (7-methoxy-4-morpholin-4-yl-thiazolo[5,4-c]pyridin-2-yl)-amide] | 3800 | 527 | 7.24
4 | COc1cnc(N2CCOCC2)c2sc(NC(=O)CC3CCOCC3)nc12 [Example 11, N-(7-Methoxy-4-morpholin-4-yl-thiazolo[5,4-c]pyridin-2-yl)-2-(tetrahydro-pyran-4-yl)-acetamide] | 5010 | 310 | 16.2
5 | COc1cnc(N2CCOCC2)c2sc(NC(=O)c3ccc(N4CCOCC4)cc3)nc12 [Example 29, N-(7-Methoxy-4-morpholin-4-yl-thiazolo[5,4-c]pyridin-2-yl)-4-morpholin-4-yl-benzamide] | – | 572 | 12.6
6 | COc1cnc(N2CCOCC2)c2sc(NC(=O)N3CCC4(CCN(C)C4=O)CC3)nc12 [Example 37, 2-Methyl-1-oxo-2,8-diaza-spiro [4.5] decane-8-carboxylic acid (7-methoxy-4-morpholin-4-yl-thiazolo[5,4-c]pyridin-2-yl)-amide] | – | 346 | 20.9
7 | COc1cnc(N2CCOCC2)c2sc(NC(=O)N3CCC(C)(CO)CC3)nc12 [Example 43, 4-Hydroxymethyl-4-methyl-piperidine-1-carboxylic acid (7-methoxy-4-morpholin-4-yl-thiazolo[5,4-c]pyridin-2-yl)-amide] | 7080 | 593 | 11.7
8 | COc1cnc(N2CCOCC2)c2sc(NC(=O)c3ccc(CN4CCOCC4)cc3)nc12 [Example 39, N-(7-Methoxy-4-morpholin-4-yl-thiazolo[5,4-c]pyridin-2-yl)-4-morpholin-4-ylmethyl-benzamide] | – | 446 | 16.2
9 | COc1cnc(N2CCOCC2)c2sc(NC(=O)c3cccc(N4CCOCC4)c3)nc12 [Example 30, N-(7-Methoxy-4-morpholin-4-yl-thiazolo[5,4-c]pyridin-2-yl)-3-morpholin-4-yl-benzamide] | 7080 | 1716 | 4.07
10 | COc1cnc(N2CCOCC2)c2sc(NC(=O)N3CCC(CO)CC3)nc12 [Example 36, 4-Hydroxymethyl-piperidine-1-carboxylic acid (7-methoxy-4-morpholin-4-yl-thiazolo[5,4-c]pyridin-2-yl)-amide] | 3160 | 468 | 6.76
11 | COCCN(C)Cc1ccc(C(=O)Nc2nc3c(OC)cnc(N4CCOCC4)c3s2)cc1 [Example 31, 4-{[(2-Methoxy-ethyl)-methyl-amino]-methyl}-N-(7-methoxy-4-morpholin-4-yl-thiazolo[5,4-c]pyridin-2-yl)-benzamide] | 6030 | 441 | 13.8

Further lines, results first:

Row | Ki [1] [nM] | Selectivity [2] | Ki [2] [nM] | SMILES
12 | 1350 | 436 | 3.09 | COc1cccc(C(=O)Nc2nc3c(OC)cnc(N4CCOCC4)c3s2)c1 [Example 7, 3-Methoxy-N-(7-methoxy-4-morpholin-4-yl-thiazolo[5,4-c]pyridin-2-yl)-benzamide]
13 | 1660 | 312 | 5.37 | COc1cnc(N2CCOCC2)c2sc(NC(=O)c3cccc(F)c3)nc12 [Example 6, 3-Fluoro-N-(7-methoxy-4-morpholin-4-yl-thiazolo[5,4-c]pyridin-2-yl)-benzamide]
14 | 1910 | 347 | 5.5 | COc1cnc(N2CCOCC2)c2sc(NC(=O)c3ccnc(N4CC(OC)C4)c3)nc12 [Example 19, 2-(3-Methoxy-azetidin-1-yl)-N-(7-methoxy-4-morpholin-4-yl-thiazolo[5,4-c]pyridin-2-yl)-isonicotinamide]
15 | – | 535 | 13.8 | COc1ccc(C(=O)Nc2nc3c(OC)cnc(N4CCOCC4)c3s2)cc1OC [Example 8, 3,4-Dimethoxy-N-(7-methoxy-4-morpholin-4-yl-thiazolo[5,4-c]pyridin-2-yl)-benzamide]
16 | 1910 | 384 | 5.01 | COc1ccc(C(=O)Nc2nc3c(OC)cnc(N4CCOCC4)c3s2)cc1 [Example 3, 4-Methoxy-N-(7-methoxy-4-morpholin-4-yl-thiazolo[5,4-c]pyridin-2-yl)-benzamide]
17 | 6460 | 1647 | 3.89 | COc1cnc(N2CCOCC2)c2sc(NC(=O)c3ccnc(N4CCOCC4)c3)nc12 [Example 22, N-(7-Methoxy-4-morpholin-4-yl-thiazolo[5,4-c]pyridin-2-yl)-2-morpholin-4-yl-isonicotinamide]
18 | 5750 | 512 | 11.2 | COc1cnc(N2CCOCC2)c2sc(NC(=O)c3ccnc(C)c3)nc12 [Example 4, N-(7-Methoxy-4-morpholin-4-yl-thiazolo[5,4-c]pyridin-2-yl)-2-methyl-isonicotinamide]
19 | – | 519 | 14.1 | COc1ccc(C(=O)Nc2nc3c(OC)cnc(N4CCOCC4)c3s2)cn1 [Example 21, 6-Methoxy-N-(7-methoxy-4-morpholin-4-yl-thiazolo[5,4-c]pyridin-2-yl)-nicotinamide]
20 | – | 868 | 7.94 | COc1cnc(N2CCOCC2)c2sc(NC(=O)c3ccnc(N4CC(O)C4)c3)nc12 [Example 18, 2-(3-Hydroxy-azetidin-1-yl)-N-(7-methoxy-4-morpholin-4-yl-thiazolo[5,4-c]pyridin-2-yl)-isonicotinamide]
21 | 6310 | 489 | 12.9 | COc1cc(C(=O)Nc2nc3c(OC)cnc(N4CCOCC4)c3s2)ccn1 [Example 5, 2-Methoxy-N-(7-methoxy-4-morpholin-4-yl-thiazolo[5,4-c]pyridin-2-yl)-isonicotinamide]
22 | 1780 | 420 | 4.17 | COc1cnc(N2CCOCC2)c2sc(NC(=O)c3ccc(F)cc3)nc12 [Example 1, 4-Fluoro-N-(7-methoxy-4-morpholin-4-yl-thiazolo[5,4-c]pyridin-2-yl)-benzamide]
23 | 5620 | 258 | 21.9 | COc1cnc(N2CCOCC2)c2sc(NC(=O)c3ccncc3)nc12 [Example 17, N-(7-Methoxy-4-morpholin-4-yl-thiazolo[5,4-c]pyridin-2-yl)-isonicotinamide]

Source: patent publication US7273865B2, “Thiazolopyridine” (Hoffmann-La Roche Inc., priority 2003, dated 2007)
